Laboratory results taken from patent publication US12065692B2, “Optical super-multiplexing by polyynes” (The Trustees of Columbia University in the City of New York, priority 2017, dated 2024).

Test system: live HeLa cells
Experiment: Live-cell SRS imaging of organelle-targeted polyynes and co-localization with fluorescent organelle markers
Type: cell-based
Experimental: FIG. 9 is live-cell SRS imaging of organelle-targeted polyynes and co-localization with fluorescent organelle markers. […] High co-localizations are also observed between organelle-targeted polyynes with commercial fluorescent markers;
HeLa cells are cultured on a glass coverslip in a 4-well plate for 24 h, and […] Carbow2141 Mito is added in the media for 1 h at 37° C. Cells are washed with PBS for three times before imaging. For co-localization, 100 nM MitoTracker Deep Red is used to stain mitochondria for 1 h.
Cells were cultured on a glass coverslip in a 4-well plate for 24 h, and 4 μM Carbow2141 Lyso is added to cells for 30 min at 37° C. Cells are washed with PBS for three times before imaging. For co-localization, 100 nM LysoTracker Red (Invitrogen, L7528) is used to stain lysosome for 30 min.
Cell are incubated with 3 μM Carbow2141 PM in the culture media for 20 min at 37° C. and are washed with PBS for three times before imaging. For co-localization, 0.5 μg/mL CellMask Deep Red (Invitrogen, C10046) is used to stain cell membrane for 5 min.
Cells were cultured on a glass coverslip in a 4-well plate for 24 h and incubated with 10 μM Carbow2226 ER for 2 h at 37° C. Cells were washed with PBS for three times before imaging. For colocalization, 1 μM ERTracker Green (Invitrogen, E34251) was used to stain endoplasmic reticulum for 2 h. […]

## O=C(NCCC[P+](c1ccccc1)(c1ccccc1)c1ccccc1)OCc1ccc(C#CC#CC#CC#Cc2ccccc2)cc1 [4-yne Mito]
  organelle localization / co-localization with fluorescent markers: specific localization to mitochondria
